Tests used:
[1] = target: Neuronal acetylcholine receptor subunit alpha-3 (Rattus norvegicus, UniProt P04757)
[2] = target: Nicotinic acetylcholine receptor (Rattus leucopus, UniProt Q62594)
Nicotinic acetylcholine receptor, sequence (Q62594 whole entry): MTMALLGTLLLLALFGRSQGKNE

Neuronal acetylcholine receptor subunit alpha-3, sequence (P04757 whole entry): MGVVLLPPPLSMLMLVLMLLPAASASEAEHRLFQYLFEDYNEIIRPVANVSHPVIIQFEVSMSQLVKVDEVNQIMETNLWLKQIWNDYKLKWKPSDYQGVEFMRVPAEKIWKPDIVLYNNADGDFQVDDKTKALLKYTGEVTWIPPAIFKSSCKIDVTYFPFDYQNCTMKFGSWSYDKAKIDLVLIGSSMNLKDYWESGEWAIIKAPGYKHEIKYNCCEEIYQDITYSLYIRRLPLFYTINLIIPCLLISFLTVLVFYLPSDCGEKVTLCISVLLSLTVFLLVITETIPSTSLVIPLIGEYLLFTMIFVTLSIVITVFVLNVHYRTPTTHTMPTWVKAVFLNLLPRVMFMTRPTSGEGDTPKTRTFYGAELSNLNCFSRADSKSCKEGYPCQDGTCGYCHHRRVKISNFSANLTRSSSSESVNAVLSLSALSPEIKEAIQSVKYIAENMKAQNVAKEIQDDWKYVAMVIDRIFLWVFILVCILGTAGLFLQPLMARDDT

For `O=c1cccc2n1C[C@H]1CNC[C@H]2C1` [(1S,9R)-7,11-diazatricyclo[7.3.1.0~2,7~]trideca-2,4-dien-6-one], the Ki [1] was 0.195 µM.

For `CO[C@@H]1CC=C2CCN3CCC4=C(CC(=O)OC4)[C@@]23C1`, the Ki [1] was over 10 µM.

`C[N+](C)(C)CCCCCC[N+](C)(C)C` [Hexamethoniumdibromide] showed a Ki [1] of over 10 µM and a Ki [2] of over 10 µM.

With `COc1cc2c3cc1Oc1cc(ccc1O)C[C@H]1c4c(cc(OC)c(O)c4Oc4ccc(cc4)C[C@@H]3N(C)CC2)CC[N+]1(C)C` [CAS_57-94-3] the Ki [1] was over 10 µM and the Ki [2] was 2.24 µM.

`C[N+](C)(C)CCOC(N)=O` [(2-Hydroxyethyl)trimethyl ammonium chloride carbamate] was tested, and the Ki [1] was 3.84 µM.
